Experimental findings from the NIST ThermoML archive (doi:10.1016/j.tca.2009.03.004) are described below.

The structures appear in SMILES notation. ± gives the expanded uncertainty stated by the source.

Data set [1] is described as follows: Molar enthalpy of transition or fusion. Conditions: DSC.
The conditions of data set [2]: DTA.

Take `CCCCCCCCOc1ccc(C=Nc2ccc(OCCCC)cc2)cc1` [benzenamine, 4-butoxy-N-[[4-(octyloxy)phenyl]methylene]-]: the “Molar enthalpy of transition or fusion” value in data set [1] (Crystal) amounted to 10.6 ± 0.287 kcal/mol; in data set [1] (Nematic liquid crystal), 0.43 ± 0.0359 kcal/mol. The Triple point temperature in data set [2] (Crystal) is 380.75 ± 0.5 K; in data set [2] (Nematic liquid crystal), 389.55 ± 0.5 K.
The matching figures for `CCCCCCCCOc1ccc(C=Nc2ccc(OCC)cc2)cc1` [4-ethoxy-N-[[4-(octyloxy)phenyl]methylene]benzenamine]: 9.66 ± 0.263 kcal/mol, 0.268 ± 0.0311 kcal/mol, 373.95 ± 0.5 K and 395.55 ± 0.5 K.
